Residues, ends and D or L forms follow the SMILES beside them.
What was measured:
cytochrome c = cytochrome c (Homo sapiens, UniProt P99999); assay: Kinetics of cytochrome c reduction (absorbance at 550 nm); assay type: biochemical
From the text: It is hypothesized that the distribution of SPN10(s) or peptide conjugates among the protein complexes in the IMM allows it to serve as additional an relay station to facilitate ET. […] Addition of N-acetylcysteine (NAC) as a reducing agent is anticipated to result in time-dependent increase in absorbance at 550 nm.

[1] = test system: Islet cells isolated from mouse pancreas; assay: Example 29: viability of isolated pancreatic islet cells; assay type: cell-based; conditions: added to isolation buffers
From the text: Islet cells will be isolated from mouse pancreas according to standard procedures. Peptide conjugates, aromatic-cationic peptides, SPN10(s) with or without aromatic-cationic peptides or control vehicle will be added to isolation buffers used throughout the isolation procedure. Mitochondrial membrane potential will be measured using TMRM (red) and visualized by confocal microscopy, and apoptosis will be measured by flow cytometry using annexin V and necrosis by propidium iodide.

SN-4741 cells = assay: Example 31: MPP^+ toxicity (Hoechst 33342); assay type: cell-based; conditions: 50 μM MPP^+, 48 hours
Experimental: SN-4741 cells will be treated with buffer; 50 μM MPP^+; 50 μM MPP^+ and peptide conjugates; 50 μM MPP^+ and aromatic-cationic peptides; or 50 μM MPP^+ and SPN10(s); or 50 μM MPP^+ and SPN10(s) with aromatic-cationic peptides for 48 hours. Apoptosis will be measured by fluorescent microscopy with Hoechst 33342.

[2] = test system: Isolated guinea pig hearts; assay: Example 28: lipid peroxidation in hearts subjected to ischemia and reperfusion; conditions: brief intervals of ischemia and reperfusion; compared to untreated controls
From the text: Isolated guinea pig hearts will be perfused in a retrograde manner in a Langendorff apparatus and subjected to various intervals of ischemia-reperfusion. Hearts will be fixed immediately, embedded in paraffin, and sectioned. Immunohistochemical analysis of 4-hydroxy-2-nonenol (HNE)-modified proteins will be carried out using an anti-HNE antibody.

Sprague Dawley rats = assay: Renal ischemia/reperfusion, no-reflow zone in the kidney; assay type: in vivo, rat
N2A cells = assay: Example 26: mitochondrial membrane potential and ROS accumulation after t-BHP (TMRM, DCF); assay type: cell-based; conditions: 0.1 mM t-BHP, 6 hours
Experimental: N2A cells cultured in a glass dish will be treated with 0.1 mM t-BHP alone or in the presence of peptide conjugates (1 nM); aromatic-cationic peptides (an equivalent molar dose of aromatic-cationic peptide based on the concentration of the aromatic-cationic peptide administered in the peptide conjugate treatment group); SPN10(s) (an equivalent molar dose of SPN10 based on the concentration of SPN10 administered in the peptide conjugate treatment group) or SPN10(s) in combination with aromatic-cationic peptides (e.g., an equivalent molar dose of SPN10 based on the concentration of SPN10 administered in the peptide conjugate treatment group and an equivalent molar dose of aromatic-cationic peptide based on the concentration of aromatic-cationic peptide administered in the peptide conjugate treatment group) for 6 hours. Cells will then be loaded with 10 μM dichlorofluorescin (DCF) (ex/em=485/530) for 30 minutes at 37° C., 5% CO2. Cells will be washed 3 times with HBSS, stained with 20 nM of Mitotracker TMRM (ex/em=550/575 nm) for 15 minutes at 37° C., and examined by confocal laser scanning microscopy.

male C57BL mice = assay: Example 46: burn-induced liver apoptosis; assay type: in vivo, mouse
Experimental: Six-to-eight week old male C57BL mice will be subjected to 30% total body surface (TBSA) burn injury and subsequently injected daily with saline vehicle; peptide conjugates (5 mg/kg body weight); aromatic-cationic peptides (an equivalent molar dose of aromatic-cationic peptide based on the concentration of the aromatic-cationic peptide administered in the peptide conjugate treatment group); SPN10(s) (an equivalent molar dose of SPN10 based on the concentration of SPN10 administered in the peptide conjugate treatment group); or SPN10(s) in combination with aromatic-cationic peptides (e.g., an equivalent molar dose of SPN10 based on the concentration of SPN10 administered in the peptide conjugate treatment group and an equivalent molar dose of aromatic-cationic peptide based on the concentration of aromatic-cationic peptide administered in the peptide conjugate treatment group). A weight- and time-matched sham-burn group exposed to lukewarm (˜37° C.) will serve as controls. Liver tissues will be collected 1, 3, and 7 days after burn injury treatment and analyzed for apoptosis (TUNEL), activated caspase levels (Western blot), and caspase activity (enzymatic assay).

Sprague-Dawley rats = assay: Example 43: cisplatin-induced acute renal injury; assay type: in vivo, rat; conditions: cisplatin 7 mg/kg i.p.
Experimental: Experimental Protocol: Sprague-Dawley rats (350-400 g) will be given a single dose of cisplatin (7 mg/kg) intraperitoneally (i.p.) on Day 1. Subjects will receive peptide conjugates (3 mg/kg) (n=8), aromatic-cationic peptides (an equivalent molar dose of aromatic-cationic peptide based on the concentration of the aromatic-cationic peptide administered in the peptide conjugate treatment group) (n=8), SPN10(s) (an equivalent molar dose of SPN10 based on the concentration of SPN10 administered in the peptide conjugate treatment group) (n=8), SPN10(s) in combination with aromatic-cationic peptides (e.g., an equivalent molar dose of SPN10 based on the concentration of SPN10 administered in the peptide conjugate treatment group and an equivalent molar dose of aromatic-cationic peptide based on the concentration of aromatic-cationic peptide administered in the peptide conjugate treatment group) (n=8) or saline vehicle (n=8) subcutaneously just prior to cisplatin administration, and once daily for 3 additional days. Subjects will be placed in metabolic cages for the final 24 hours of the trial for urine collection. At the end of the trial, blood samples will be withdrawn from tail veins and the kidneys harvested.
Renal function: Renal function will be assessed by measuring blood urea nitrogen (BUN), serum creatinine, urine creatinine, and urine protein. GFR will be estimated from creatinine clearance, which will be determined from serum and urinary creatinine, and urinary volume.
Renal Histology: Kidneys will be fixed in 10% neutral-buffered formalin and embedded in paraffin wax for sectioning. Three-micron sections will be stained with periodic acid-Schiff (PAS) and analyzed by light microscopy.

Chain of cytochrome c (P99999 whole entry, species assumed): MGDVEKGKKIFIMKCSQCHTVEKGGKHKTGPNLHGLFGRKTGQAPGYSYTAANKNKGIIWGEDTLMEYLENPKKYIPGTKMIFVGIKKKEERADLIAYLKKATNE

N=C(N)NCCC[C@H](NC(=O)[C@@H](N)Cc1c[nH]c2ccccc12)C(=O)N[C@@H](Cc1c[nH]c2ccccc12)C(=O)N[C@@H](CCCCN)C(N)=O [SPN10, H-L-Trp-L-Arg-L-Trp-L-Lys-NH2] (H-WRWK-NH2)
reduction of cytochrome c by compound alone (cytochrome c; 100 μM, without NAC): will not reduce cytochrome c | rate of NAC-induced cytochrome c reduction (cytochrome c; with N-acetylcysteine (NAC)): dose-dependently increase | apoptosis of islet cells (annexin V) [1]: reduce apoptosis | islet cell viability (mitochondrial membrane potential) [1]: increase islet cell viability | number of apoptotic cells after MPP^+ (SN-4741 cells): reduce the number of apoptotic cells | lipid peroxidation (HNE-modified proteins) [2]: prevent lipid peroxidation | anatomic zone of no-reflow in the kidney (Sprague Dawley rats; 30 minutes before ischemia and before reperfusion): prevent or reduce | one or more of BUN, serum creatinine, and glomerular filtration rate (Sprague Dawley rats; versus untreated control subjects): improve | ROS accumulation (DCF) (N2A cells): reduce ROS accumulation | mitochondrial depolarization (TMRM) (N2A cells): prevent mitochondrial depolarization | rate of apoptosis in the liver after burn (TUNEL) (male C57BL mice; 30% TBSA burn, days 1, 3, 7): attenuate or prevent this effect | protein oxidation following burn injury (male C57BL mice; compared to burn control subjects): decrease in protein oxidation | caspase-3 activation (Western blot) (male C57BL mice; days 3 and 7 post-burn): attenuate or suppress caspase-3 activation | caspase activity (enzymatic assay) (male C57BL mice; post-burn day 7): reduce caspase activity to a level not statistically different from that of sham control group | increase in BUN after cisplatin (Sprague-Dawley rats): attenuate or prevent this effect | increase in serum creatinine after cisplatin (Sprague-Dawley rats): attenuate or prevent this effect | reduction in body weight after cisplatin (Sprague-Dawley rats): attenuate or prevent this effect

From patent publication US20240108740A1, “THERAPEUTIC COMPOSITIONS INCLUDING SPN10 AND USES THEREOF” (Stealth BioTherapeutics Inc., priority 2022, published 2024)
